Source: PMC9829398 (Plant Biotechnology Journal, 2022)
Like-named read-outs stand apart in the source and are kept apart here.

Tests used:
[1] = biological target: T1, FER‐CD (Arabidopsis thaliana, UniProt Q9SCZ4); conditions: read-out: Equilibrium dissociation constant (KD) of binding to FER-CD; MST, 25°C, 100 nM labelled FER-CD, means ± SEs (n = 3)
[2] = biological target: T1, FER‐CD; test: biochemical
[3] = system: ANJEA‐CD; test: ANJEA-CD kinase activity (autophosphorylation); type: biochemical, Arabidopsis thaliana; conditions: 5 μM
[4] = system: PER5; conditions: 5 μM for 24 h, confocal microscopy
[5] = system: HERK1‐CD; test: HERK1-CD kinase activity (autophosphorylation); type: biochemical, Arabidopsis thaliana; conditions: 5 μM
[6] = system: ROS in Col‐0 and fer‐4 roots; test: ROS detection in plant roots (H2DCF-DA fluorescence); conditions: 5 μM for 15 min, vs DMSO and lapatinib
[7] = system: Ralstonia solanacearum; type: in vivo; conditions: Arabidopsis seedlings pretreated with 5 μM, 4 days after inoculation
[8] = system: THE1‐CD; test: THE1-CD kinase activity (autophosphorylation); type: biochemical, Arabidopsis thaliana; conditions: 5 μM
[9] = system: FER cytoplasmic domain (FER‐CD); test: FER-CD kinase activity (autophosphorylation), high-throughput screening, Kinase-Lumi luminescent ATP consumption; type: biochemical, Arabidopsis thaliana; conditions: in vitro autophosphorylation
[10] = system: FRK1; conditions: 5 μM for 24 h, confocal microscopy
[11] = system: Meloidogyne incognita; test: Established rice root-knot nematode disease (inhibitor applied after inoculation); type: in vivo; conditions: in vivo
[12] = system: PKA; set-up: method as in Omura et al., [2018]; conditions: ref Omura et al., [2018]; cited from earlier work
[13] = system: tobacco; test: Growth of tobacco (shoot and root fresh weight, Day 25); conditions: 5 μM irrigated twice
[14] = system: PKC; set-up: method as in Omura et al., [2018]; conditions: ref Omura et al., [2018]; cited from earlier work
[15] = system: Ralstonia solanacearum; type: in vivo, tobacco; conditions: 5 μM irrigated twice two days after inoculation
[16] = system: Ralstonia solanacearum; type: in vivo, tobacco; conditions: roots pretreated twice with 3 mL of 5 μM
[17] = system: Meloidogyne incognita; test: Rice root-knot nematode disease, preventive root treatment; type: in vivo; conditions: in vivo
[18] = system: Ralstonia solanacearum; type: in vivo, tomato; conditions: roots pretreated twice with 3 mL of 5 μM
[19] = system: Arabidopsis Col‐0 and fer‐4 seedlings; test: Growth of Arabidopsis seedlings (root length, shoot fresh weight); conditions: 5 μM for 3 days, vs ddH2O (mock) and lapatinib
[20] = system: NtFER‐CD; test: NtFER-CD kinase activity (autophosphorylation); type: biochemical, Nicotiana tabacum; conditions: tobacco FER homologue

T1 sequence (Q9SCZ4 469-895): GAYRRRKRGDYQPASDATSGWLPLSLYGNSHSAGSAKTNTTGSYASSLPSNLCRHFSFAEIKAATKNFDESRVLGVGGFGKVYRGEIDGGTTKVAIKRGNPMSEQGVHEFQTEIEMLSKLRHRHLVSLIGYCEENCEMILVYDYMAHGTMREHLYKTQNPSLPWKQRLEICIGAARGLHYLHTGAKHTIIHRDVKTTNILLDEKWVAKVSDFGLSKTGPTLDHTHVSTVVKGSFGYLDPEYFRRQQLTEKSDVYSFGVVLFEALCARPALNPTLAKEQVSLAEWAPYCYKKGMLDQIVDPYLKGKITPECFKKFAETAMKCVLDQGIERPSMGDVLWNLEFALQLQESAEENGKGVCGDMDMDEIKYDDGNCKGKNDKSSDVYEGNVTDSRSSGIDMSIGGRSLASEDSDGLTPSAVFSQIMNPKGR

Nc1ncnc2c1ncn2[C@@H]1O[C@H](COP(=O)(O)OP(=O)(O)OP(=O)(O)O)[C@@H](O)[C@H]1O [ATP]
Kd [1]: 18400 nM

Cc1cc(Nc2ncc(F)c(NC3C4C=CC(C4)C3C(N)=O)n2)ccc1N1CCN(C)CC1 (stereo not drawn) [Cenisertib]
Kd [2]: 1970 nM | Inhibition rate of ANJEA-CD kinase activity [3]: higher than 88% | Expression of PER5 in roots [4]: did not affect the expression of PER5 | Inhibition rate of HERK1-CD kinase activity [5]: higher than 88% | Production of ROS in Col-0 roots [6]: had no effect on ROS levels | Cotyledon bleaching caused by R. solanacearum [7]: turned white | Inhibition rate of THE1-CD kinase activity [8]: higher than 88% | Effect on FER kinase activity [9]: inhibited the kinase activity of FER | Expression of FRK1 in roots [10]: increased the expression of FRK1

CN[C@@H]1C[C@H]2O[C@@](C)([C@@H]1OC)n1c3ccccc3c3c4c(c5c6ccccc6n2c5c31)C(=O)NC4 [Staurosporine]
Effect on established rice root-knot nematode disease [11]: could not completely prevent the occurrence of the diseases or cure already diseased plants | IC50 [12]: […] | Growth (biomass) of tobacco shoots and roots [13]: did not observably affect the biomass | IC50 [14]: […] | Expression of PER5 in roots [4]: elevated the expression of PER5 to a certain extent | Effect on established tobacco bacterial wilt [15]: could not completely prevent the occurrence of the diseases or cure already diseased plants | Control of tobacco bacterial wilt [16]: alleviated soil‐borne diseases | Production of ROS in Col-0 roots [6]: significantly increased the production of ROS | Control of rice root-knot nematode disease [17]: alleviated soil‐borne diseases | Cotyledon bleaching caused by R. solanacearum [7]: effectively prevented the cotyledon bleaching | Control of tomato bacterial wilt [18]: alleviated soil‐borne diseases | Growth of roots and shoots of Arabidopsis Col-0 seedlings [19]: severely inhibited root and shoot growth | Effect on FER kinase activity [9]: inhibited the kinase activity of FER | Expression of FRK1 in roots [10]: observably enhanced the expression of FRK1 | Root cell morphology [10]: caused expansion of the root cells

CS(=O)(=O)CCNCc1ccc(-c2ccc3ncnc(Nc4ccc(OCc5cccc(F)c5)c(Cl)c4)c3c2)o1 [lapatinib]
Inhibitory effect on NtFER-CD kinase activity [20]: ineffective | Expression of PER5 in roots [4]: did not affect the expression levels | Cotyledon bleaching caused by R. solanacearum [7]: turned white | Effect on FER kinase activity [9]: did not affect FER kinase activity | Expression of FRK1 in roots [10]: did not affect the expression levels
